Results: patent publication US9522914B2, “Azole derivative” (TAISHO PHARMACEUTICAL CO., LTD, priority 2011, dated 2016)

The molecules below were run against Human V1b receptor (Homo sapiens (Human), UniProt P47901) (assay: Binding Test for V1b Receptor ([3H]AVP, crude membrane preparation of 293FT cells)). Settings: inhibition of [3H]AVP binding (0.4 to 1 nmol/L), room temperature, 60 minutes.
Procedure: Binding Test for V1b Receptor
Human V1b receptor was transiently expressed in 293FT cells (Invitrogen). The cells were collected and then homogenated in a 15 mmol/L tris-hydrochloric acid buffer (pH 7.4 and containing 2 mmol/L magnesium chloride, 0.3 mmol/L ethylenediaminetetracetic acid, and 1 mmol/L glycol ether diaminetetraacetic acid). The resulting homogenate was centrifuged at 50,000×g at 4° C. for 20 minutes. The precipitate was resuspended in a 75 mmol/L tris-hydrochloric acid buffer (pH 7.4 and containing 12.5 mmol/L magnesium chloride, 0.3 mmol/L ethylenediaminetetracetic acid, 1 mmol/L glycol ether diaminetetraacetic acid, and 250 mmol/L sucrose) to give a crude membrane preparation, which was stored at −80° C. until the binding test was initiated. In the binding test, the crude membrane preparation was diluted with a 50 mmol/L tris-hydrochloric acid buffer (pH 7.4 and containing 10 mmol/L magnesium chloride and 0.1% bovine serum albumin) and mixed with each test compound and [^3H]AVP (final concentration: 0.4 to 1 nmol/L), followed by incubation at room temperature for 60 minutes. The test compound was serially diluted with DMSO so that it would have final concentrations of 0.01 nmol/L to 1 μmol/L at the time of mixing. After the incubation, the mixture was suction filtered through a GF/C filter that was preliminarily impregnated with 0.3% polyethyleneimine. The GF/C filter was dried and after adding a scintillator, the residual radioactivity on the filter was measured using TopCount (PerkinElmer Inc.). The radioactivity in the presence of unlabeled AVP at […] was defined as 0%, and the radioactivity in the absence of unlabeled AVP was defined as 100%. A dose-response curve was plotted from radio activities in the presence of a test compound at various concentrations, and the 50% inhibitory concentration (IC50 value) of the test compound was calculated.

Human V1b receptor, sequence (P47901 whole entry): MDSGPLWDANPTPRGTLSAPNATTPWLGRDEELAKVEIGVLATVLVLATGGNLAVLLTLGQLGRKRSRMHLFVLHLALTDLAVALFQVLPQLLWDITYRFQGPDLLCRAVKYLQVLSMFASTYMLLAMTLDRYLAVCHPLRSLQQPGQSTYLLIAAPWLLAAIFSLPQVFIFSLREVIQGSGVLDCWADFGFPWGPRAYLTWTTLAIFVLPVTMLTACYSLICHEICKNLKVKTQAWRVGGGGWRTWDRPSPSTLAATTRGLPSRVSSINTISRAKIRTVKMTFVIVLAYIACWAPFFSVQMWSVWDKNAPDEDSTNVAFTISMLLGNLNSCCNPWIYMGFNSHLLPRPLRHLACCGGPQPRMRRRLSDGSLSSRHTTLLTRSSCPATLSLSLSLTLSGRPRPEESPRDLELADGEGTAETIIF

Structure (SMILES)	IC50
COc1cc(-c2nc(-c3ccc(CCN4C5CCC4COC5)cn3)nn2CC(=O)NC(C)C)ccc1F [Example B-06, 2-[5-(4-fluoro-3-methoxyphenyl)-3-{5-[2-(3-oxa-8-azabicyclo[3.2.1]oct-8-yl)ethyl]pyridin-2-yl}-1H-1,2,4-triazol-1-yl]-N-(propan-2-yl)acetamide]	0.0033 µM
COc1cccc(-c2nc(-c3ccc(CCN4C5CCC4COC5)cn3)nn2CC(=O)NC(C)(C)C)c1 [Example B-07, N-tert-butyl-2-[5-(3-methoxyphenyl)-3-{5-[2-(3-oxa-8-azabicyclo[3.2.1]oct-8-yl)ethyl]pyridin-2-yl}-1H-1,2,4-triazol-1-yl]acetamide]	0.0043 µM
CC(C)NC(=O)Cn1nc(-c2ccc(CCN3C4CCC3COC4)cn2)nc1-c1ccc(F)c(Cl)c1 [Example B-08, 2-[5-(3-chloro-4-fluorophenyl)-3-{5-[2-(3-oxa-8-azabicyclo[3.2.1]oct-8-yl)ethyl]pyridin-2-yl}-1H-1,2,4-triazol-1-yl]-N-(propan-2-yl)acetamide]	0.0028 µM
CC(C)(C)NC(=O)Cn1nc(-c2ccc(CCN3C4CCC3COC4)cn2)nc1-c1cccc(Cl)c1 [Example B-09, N-tert-butyl-2-[5-(3-chlorophenyl)-3-{5-[2-(3-oxa-8-azabicyclo[3.2.1]oct-8-yl)ethyl]pyridin-2-yl}-1H-1,2,4-triazol-1-yl]acetamide]	0.0022 µM
CC(C)(C)NC(=O)Cn1nc(-c2ccc(CCN3CCOCC3)cn2)nc1-c1cccc(Cl)c1 [Example B-11, N-tert-butyl-2-[5-(3-chlorophenyl)-3-{5-[2-(morpholin-4-yl)ethyl]pyridin-2-yl}-1H-1,2,4-triazol-1-yl]acetamide]	0.0051 µM
COc1cc(-c2nc(-c3ccc(CCN4CCOCC4)cn3)nn2CC(=O)NC(C)C)ccc1F [Example B-13, 2-[5-(4-fluoro-3-methoxyphenyl)-3-{5-[2-(morpholin-4-yl)ethyl]pyridin-2-yl}-1H-1,2,4-triazol-1-yl]-N-(propan-2-yl)acetamide]	0.0089 µM
COc1cccc(-c2nc(-c3ccc(CCN4CCOCC4)cn3)nn2CC(=O)NC(C)(C)C)c1 [Example B-14, N-tert-butyl-2-[5-(3-methoxyphenyl)-3-{5-[2-(morpholin-4-yl)ethyl]pyridin-2-yl}-1H-1,2,4-triazol-1-yl]acetamide]	0.0066 µM
COc1cccc(-c2nc(-c3ccc(CCN4CCOCC4)cn3)nn2CC(=O)NC(C)C)c1 [Example B-15, 2-[5-(3-methoxyphenyl)-3-{5-[2-(morpholin-4-yl)ethyl]pyridin-2-yl}-1H-1,2,4-triazol-1-yl]-N-(propan-2-yl)acetamide]	0.031 µM
COc1cccc(-c2nc(-c3ccc(CCN4CCOCC4)cc3)nn2CC(=O)NC(C)C)c1 [Example B-16, 2-[5-(3-methoxyphenyl)-3-{4-[2-(morpholin-4-yl)ethyl]phenyl}-1H-1,2,4-triazol-1-yl]-N-(propan-2-yl)acetamide]	0.0053 µM
COc1cccc(-c2nc(-c3ccc(CCN4C5CCC4COC5)cc3)nn2CC(=O)NC(C)C)c1 [Example B-17, 2-[5-(3-methoxyphenyl)-3-{4-[2-(3-oxa-8-azabicyclo[3.2.1]oct-8-yl)ethyl]phenyl}-1H-1,2,4-triazol-1-yl]-N-(propan-2-yl)acetamide]	0.0014 µM
COc1cccc(-c2nc(-c3ccc(CCN4CCOCC4)c(F)c3)nn2CC(=O)NC(C)C)c1 [Example B-19, 2-[3-{3-fluoro-4-[2-(morpholin-4-yl)ethyl]phenyl}-5-(3-methoxyphenyl)-1H-1,2,4-triazol-1-yl]-N-(propan-2-yl)acetamide]	0.0069 µM
COc1cccc(-c2nc(-c3ccc(CC(C)N4C5CCC4COC5)cc3)nn2CC(=O)NC(C)C)c1 (stereo not shown) [Example B-20, 2-[5-(3-methoxyphenyl)-3-{4-[2-(3-oxa-8-azabicyclo[3.2.1]oct-8-yl)propyl]phenyl}-1H-1,2,4-triazol-1-yl]-N-(propan-2-yl)acetamide]	0.00043 µM
COc1cccc(-c2nc(-c3ccc(CCN4CCCC(OC)C4)cc3)nn2CC(=O)NC(C)C)c1 (stereo not shown) [Example B-25, 2-[5-(3-methoxyphenyl)-3-{4-[2-(3-methoxypiperidin-1-yl)ethyl]phenyl}-1H-1,2,4-triazol-1-yl]-N-(propan-2-yl)acetamide]	0.01 to 0.1 µM
COc1cccc(-c2nc(-c3ccc(CCN4CCSCC4)cc3)nn2CC(=O)NC(C)C)c1 [Example B-28, 2-[5-(3-methoxyphenyl)-3-{4-[2-(thiomorpholin-4-yl)ethyl]phenyl}-1H-1,2,4-triazol-1-yl]-N-(propan-2-yl)acetamide]	< 0.01 µM
CCC1COCCN1CCc1ccc(-c2nc(-c3cccc(OC)c3)n(CC(=O)NC(C)C)n2)cc1 (stereo not shown) [Example B-31, 2-[3-{4-[2-(3-ethylmorpholin-4-yl)ethyl]phenyl}-5-(3-methoxyphenyl)-1H-1,2,4-triazol-1-yl]-N-(propan-2-yl)acetamide]	0.01 to 0.1 µM
COc1cccc(-c2nc(-c3ccc(CCN4CCN(C)CC4)cc3)nn2CC(=O)NC(C)C)c1 [Example B-32, 2-[5-(3-methoxyphenyl)-3-{4-[2-(4-methylpiperazin-1-yl)ethyl]phenyl}-1H-1,2,4-triazol-1-yl]-N-(propan-2-yl)acetamide]	0.1 to 1 µM

Other lines, results leading:

IC50	Structure (SMILES)
0.012 µM	CC(C)NC(=O)Cn1nc(-c2ccc(CCN3CCOCC3)cn2)nc1-c1cccc(Cl)c1 [Example B-10, 2-[5-(3-chlorophenyl)-3-{5-[2-(morpholin-4-yl)ethyl]pyridin-2-yl}-1H-1,2,4-triazol-1-yl]-N-(propan-2-yl)acetamide]
0.0063 µM	CC(C)NC(=O)Cn1nc(-c2ccc(CCN3CCOCC3)cn2)nc1-c1ccc(F)c(Cl)c1 [Example B-12, 2-[5-(3-chloro-4-fluorophenyl)-3-{5-[2-(morpholin-4-yl)ethyl]pyridin-2-yl}-1H-1,2,4-triazol-1-yl]-N-(propan-2-yl)acetamide]
0.0072 µM	COc1cccc(-c2nc(-c3ccc(CCN4CCOCC4)cc3F)nn2CC(=O)NC(C)C)c1 [Example B-18, 2-[3-{2-fluoro-4-[2-(morpholin-4-yl)ethyl]phenyl}-5-(3-methoxyphenyl)-1H-1,2,4-triazol-1-yl]-N-(propan-2-yl)acetamide]
0.01 to 0.1 µM	COc1cccc(-c2nc(-c3ccc(CCN4CCCC4)cc3)nn2CC(=O)NC(C)C)c1 [Example B-21, 2-[5-(3-methoxyphenyl)-3-{4-[2-(pyrrolidin-1-yl)ethyl]phenyl}-1H-1,2,4-triazol-1-yl]-N-(propan-2-yl)acetamide]
0.01 to 0.1 µM	COc1cccc(-c2nc(-c3ccc(CCN4CC=CCC4)cc3)nn2CC(=O)NC(C)C)c1 [Example B-22, 2-[3-{4-[2-(3,6-dihydropyridin-1(2H)-yl)ethyl]phenyl}-5-(3-methoxyphenyl)-1H-1,2,4-triazol-1-yl]-N-(propan-2-yl)acetamide]
0.01 to 0.1 µM	COc1cccc(-c2nc(-c3ccc(CCN4CCC(C)CC4)cc3)nn2CC(=O)NC(C)C)c1 [Example B-23, 2-[5-(3-methoxyphenyl)-3-{4-[2-(4-methylpiperidin-1-yl)ethyl]phenyl}-1H-1,2,4-triazol-1-yl]-N-(propan-2-yl)acetamide]
0.1 to 1 µM	COc1cccc(-c2nc(-c3ccc(CCN4CCC(C#N)CC4)cc3)nn2CC(=O)NC(C)C)c1 [Example B-24, 2-[3-{4-[2-(4-cyanopiperidin-1-yl)ethyl]phenyl}-5-(3-methoxyphenyl)-1H-1,2,4-triazol-1-yl]-N-(propan-2-yl)acetamide]
0.1 to 1 µM	COc1cccc(-c2nc(-c3ccc(CCN4CCC(N(C)C)CC4)cc3)nn2CC(=O)NC(C)C)c1 [Example B-26, 2-[3-(4-{2-[4-(dimethylamino)piperidin-1-yl]ethyl}phenyl)-5-(3-methoxyphenyl)-1H-1,2,4-triazol-1-yl]-N-(propan-2-yl)acetamide]
0.01 to 0.1 µM	COc1cccc(-c2nc(-c3ccc(CCN4CCC5CCCCC5C4)cc3)nn2CC(=O)NC(C)C)c1 (stereo not shown) [Example B-27, 2-[5-(3-methoxyphenyl)-3-{4-[2-(octahydroisoquinolin-2(1H)-yl)ethyl]phenyl}-1H-1,2,4-triazol-1-yl]-N-(propan-2-yl)acetamide]
0.01 to 0.1 µM	COc1cccc(-c2nc(-c3ccc(CCN4C[C@@H](C)O[C@@H](C)C4)cc3)nn2CC(=O)NC(C)C)c1 [Example B-29, 2-[3-(4-{2-[(2R,6S)-2,6-dimethylmorpholin-4-yl]ethyl}phenyl)-5-(3-methoxyphenyl)-1H-1,2,4-triazol-1-yl]-N-(propan-2-yl)acetamide]
0.01 to 0.1 µM	COc1cccc(-c2nc(-c3ccc(CCN4CCOCC4C)cc3)nn2CC(=O)NC(C)C)c1 (stereo not shown) [Example B-30, 2-[5-(3-methoxyphenyl)-3-{4-[2-(3-methylmorpholin-4-yl)ethyl]phenyl}-1H-1,2,4-triazol-1-yl]-N-(propan-2-yl)acetamide]
0.1 to 1 µM	COc1cccc(-c2nc(-c3ccc(CCN4CCN(C(C)=O)CC4)cc3)nn2CC(=O)NC(C)C)c1 [Example B-33, 2-[3-{4-[2-(4-acetylpiperazin-1-yl)ethyl]phenyl}-5-(3-methoxyphenyl)-1H-1,2,4-triazol-1-yl]-N-(propan-2-yl)acetamide]
